pIC50: −log10 of the molar value.
Assays:
[1] = system: Kuramochi cells labeled with mApple-H2B; assay: IncuCyte Cell Proliferation Assay; format: cell-based; details: 72 h
Procedure, shortened: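 Cells imaged at 0 and 72 h after compound treatment (10 points, ½ log dilution, 20 μM top), with fluorescent nuclei counted. Fold change in count was normalized to DMSO wells and fitted to dose-response curves to give GI50.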

Kuramochi cells = assay: BrdU Cell Proliferation Assay; format: cell-based; details: read-out: BrdU - KURAMOCHI.1: IC50
Procedure, shortened: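 Kuramochi cells were seeded at 2,000 cells/well, adhered overnight, then treated with a 10-point, 3-fold compound dilution series for 4 days. Proliferation was measured by a 1-hour BrdU pulse, anti-BrdU peroxidase colorimetric ELISA and 450 nm absorbance. Values were background-subtracted and normalized to DMSO wells.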

| Structure (SMILES) | pIC50 [1] | pIC50 (Kuramochi cells) |
| --- | --- | --- |
| C[C@@H](OCC12CCC(CC1)CC2)[C@H](NC(=O)[C@@H]1CN(C(=O)c2cncs2)CC12CN(C(=O)[C@H]1CC1(C)C)C2)C(C)(C)O [I-304] | 5.30 to 6.30 | 5.30 to 6.30 |
| CO[C@H](C)[C@H](NC(=O)[C@@H]1CN(C(=O)c2cnn(Cc3ccccc3)c2)CC12CN(C(=O)[C@H]1CC1(C)C)C2)C(=O)N1CCC(CN)CC1 [I-306] | < 4.70 | < 5.00 |
| C[C@@H](OCC1CCCCC1)[C@@H](CO)NC(=O)[C@@H]1CN(C(=O)c2cncs2)CC12CN(C(=O)[C@H]1CC1(C)C)C2 [I-307] | 5.30 to 6.30 | 5.30 to 6.30 |
| C[C@@H](OCC1CCCCC1)[C@@H](COC1CCCCC1)NC(=O)[C@@H]1CN(C(=O)c2cncs2)CC12CN(C(=O)[C@H]1CC1(C)C)C2 [I-308] | 5.30 to 6.30 | ≥ 6.30 |
| C[C@@H](OCC1CCCCC1)[C@@H](COC(F)(F)F)NC(=O)[C@@H]1CN(C(=O)c2cnn(Cc3ccccc3)c2)CC12CN(C(=O)[C@H]1CC1(C)C)C2 [I-309] | 5.30 to 6.30 | 5.30 to 6.30 |
| Cc1cc(C(=O)N2CC(C(=O)N[C@H](C(=O)N3CCCCC3)[C@@H](C)OCC3CCCCC3)C3(C2)CN(C(=O)[C@H]2CC2(C)C)C3)sn1 (stereo partly shown) [I-311] | ≥ 6.30 | ≥ 6.30 |
| COC[C@H]1CCCN(C(=O)[C@@H](NC(=O)[C@@H]2CN(C(=O)c3cncs3)CC23CN(C(=O)[C@H]2CC2(C)C)C3)[C@@H](C)OCc2ccc(Cl)cc2F)C1 [I-317] | 5.30 to 6.30 | 5.30 to 6.30 |
| COC[C@H]1CCCN(C(=O)[C@@H](NC(=O)[C@@H]2CN(C(=O)c3cncs3)CC23CN(C(=O)[C@H]2CC2(C)C)C3)[C@@H](C)OCc2ccc(F)cc2)C1 [I-318] | 5.30 to 6.30 | 5.30 to 6.30 |
| COC[C@H]1CCCN(C(=O)[C@@H](NC(=O)[C@@H]2CN(C(=O)c3cncs3)CC23CN(C(=O)[C@H]2CC2(C)C)C3)[C@@H](C)OCc2ccc(C(F)(F)F)cc2)C1 [I-319] | 5.30 to 6.30 | ≥ 6.30 |
| COC[C@H]1CCCN(C(=O)[C@@H](NC(=O)[C@@H]2CN(C(=O)c3cncs3)CC23CN(C(=O)[C@H]2CC2(C)C)C3)[C@@H](C)OCc2ccccc2F)C1 [I-321] | 5.30 to 6.30 | 5.30 to 6.30 |
| COC[C@H]1CCCN(C(=O)[C@@H](NC(=O)[C@@H]2CN(C(=O)c3cncs3)CC23CN(C(=O)[C@H]2CC2(C)C)C3)[C@@H](C)OCc2cccc(F)c2)C1 [I-322] | 5.30 to 6.30 | 5.30 to 6.30 |
| COC[C@H]1CCCN(C(=O)CNC(=O)[C@@H]2CN(C(=O)c3cncs3)CC23CN(C(=O)[C@H]2CC2(C)C)C3)C1 [I-323] | < 4.70 | < 5.00 |
| COC[C@H]1CCCN(C(=O)[C@@H](C)NC(=O)[C@@H]2CN(C(=O)c3cncs3)CC23CN(C(=O)[C@H]2CC2(C)C)C3)C1 [I-324] | < 4.70 | < 5.00 |
| COC[C@H]1CCCN(C(=O)[C@H](C)NC(=O)[C@@H]2CN(C(=O)c3cncs3)CC23CN(C(=O)[C@H]2CC2(C)C)C3)C1 [I-325] | < 4.70 | < 5.00 |
| C[C@@H](OCC1CCC(F)(F)CC1)[C@H](NC(=O)[C@@H]1CN(C(=O)c2cncs2)CC12CN(C(=O)[C@H]1CC1(C)C)C2)C(=O)N1CCC[C@H](COC(F)(F)F)C1 [I-326] | ≥ 6.30 | ≥ 6.30 |
| C[C@@H](OCC1CCCCC1)[C@H](NC(=O)[C@@H]1CN(C(=O)c2cncs2)CC12CN(C(=O)[C@H]1CC1(C)C)C2)C(=O)N1CCNCC1 [I-328] | 5.30 to 6.30 | 5.30 to 6.30 |
| C[C@@H](OCC12CCC(CC1)OC2)[C@H](NC(=O)[C@@H]1CN(C(=O)c2cncs2)CC12CN(C(=O)[C@H]1CC1(C)C)C2)C(=O)N1CCC2(CC1)COC2 [I-336] | 4.70 to 5.30 | < 5.00 |
| C[C@@H](OCC1CCOCC1)[C@H](NC(=O)[C@@H]1CN(C(=O)c2cncs2)CC12CN(C(=O)C(C)(C)C1CC1)C2)C(C)(C)O [I-341] | < 4.70 | < 5.00 |
| CNC(=O)[C@@H](NC(=O)[C@@H]1CN(C(=O)c2cncs2)CC12CN(C(=O)[C@H]1CC1(C)C)C2)[C@@H](C)OCC12CCC(CC1)OC2 [I-342] | 5.30 to 6.30 | 5.30 to 6.30 |
| CNC(=O)[C@@H](NC(=O)[C@@H]1CN(C(=O)c2cncs2)CC12CN(CC1CCCC1)C2)[C@@H](C)OCC12CCC(CC1)OC2 [I-344, (S)—N-((2S,3R)-3-(2-oxabicyclo[2.2.2]octan-4-ylmethoxy)-1-(methylamino)-1-oxobutan-2-yl)-2-(cyclopentylmethyl)-6-(thiazole-5-carbonyl)-2,6-diazaspiro[3.4]octane-8-carboxamide] | < 4.70 | < 5.00 |
| CNC(=O)[C@@H](NC(=O)[C@@H]1CN(C(=O)c2cncs2)CC12CN(CC1CCOC1)C2)[C@@H](C)OCC12CCC(CC1)OC2 (stereo partly shown) [I-345] | < 4.70 | < 5.00 |
| CNC(=O)[C@@H](NC(=O)[C@@H]1CN(C(=O)c2cncs2)CC12CN(C(=O)[C@H]1CC1(C)C)C2)[C@@H](C)OC[C@H]1CC[C@@H](C)CC1 [I-354] | ≥ 6.30 | 5.30 to 6.30 |
| CNC(=O)[C@@H](NC(=O)[C@@H]1CN(C(=O)c2cncs2)CC12CN(C(=O)[C@H]1CC1(C)C)C2)[C@@H](C)OCC1CCC2(CC1)CC2 [I-355] | ≥ 6.30 | 5.30 to 6.30 |
